Several values for one entry are separate records, joined by “and”; a condition that tells them apart may be missing. Identical values can stand only once. Entries after “also recorded” stand apart in the source; their conditions may differ.
How the values were obtained:
[1] = system: Akt; details: cited from earlier work
[2] = target: T1, Akt2 (Homo sapiens, UniProt P31751); experiment: Non-radioactive kinase assay, phosphorylation of GSK-3α/β fusion protein; assay type: biochemical; design: purchased Abcam
Description: The non-radioactive kinase assay kit for Akt2 was purchased from Cell Signaling. Ligand solutions were made in DMSO. Kinase reactions were set up in 1× kinase buffer (25 mM trisHCl (pH 7.5), 10 mM MgCl2, 0.01% Triton-X, 1× Complete protease inhibitor (Roche), 1× Phosstop phosphatase inhibitor (Roche)), each 25 μL reaction mixture containing 400 ng Akt2, 400 ng GST-GSK-3α/β fusion protein, […] and 0.5 μL of peptide solutions in DMSO or DMSO only. Reactions were allowed to proceed for 30 minutes at 30° C. A reaction mixture was also prepared using a 1:2.5 dilution of anti pS473 antibody (Cell Signaling) in the kinase buffer instead of the peptide ligand or DMSO. The reactions were quenched by adding 12.5 μL of 2×SDS sample loading buffer and heating at 95° C. for five minutes. 10 μL from each sample was loaded on an any kD SDS gel (BioRad) and run for an hour at 110 volts. Following semidry transfer of the gel to a nitrocellulose membrane, the membrane was blocked in 5% nonfat milk/TBST for an hour at 4° C., and treated overnight at 4° C. with a 1:200 dilution of Phospho GSK-3α/β Ser (21/9) rabbit antibody (Cell Signaling) in 0.5% milk/TBST. Following washes, the membrane was treated with a 1:2000 dilution of mouse anti-rabbit-HRP antibody for an hour at 4° C. After four five minute washes with TBST, and one five minute wash with TBS, the membrane was treated with West Dura ECL substrate (Thermo Scientific) and imaged on film.

[3] = target: T1, Akt2; experiment: Single component ELISA, PCC agent as capture or detection agent (relative affinity); assay type: binding; design: purchased Abcam; details: read-out: EC50 from single component ELISA
From the text: FIG. 23: A. ELISA assays in which the PCC Agents are utilized as either as surface-localized capture agents (for N-tL, C-tL) or as the detection agent (for mono-L, bi-L). Such assays provide relative affinity measurements, which are given as EC50 values in the key. […] C. C-tL distinguishes the full length Akt2 from isoform proteins Akt1 and Akt3. D. The 32 amino acid long C terminal fragment from Akt2, Akt1 and Akt3. The hydrophobic motif is highlighted in blue. pS refers to phospho-serine. […] F. Selectivity assays: Biotinylated ligands or biotinylated pS473 antibody is immobilized on streptavidin-agarose and treated with OVCAR3 cell lysate. The eluents are stained with a pan-Akt antibody or pS473 Akt antibody.
(§1) 1.25 μM biotinylated ligand was prepared by diluting the 1 mM stock in binding buffer (25 mM tris chloride, pH=7.4, 150 mM NaCl, 0.1% BSA, 0.05% Tween 20). The prepared ligand solution or 0.125% DMSO in buffer (buffer control) was immobilized on a High Capacity Streptavidin 96 well plate (Thermo Scientific). After washing away the excess ligand, the plate was blocked overnight with 1% BSA/25 mM tris chloride, pH=7.4/150 mM NaCl, 0.05% Tween 20. 2.5 μM solutions of the His6 (SEQ ID NO:28) tagged target phosphopeptide epitope Akt2 amino acids 450-481, His6 (SEQ ID NO:28) tagged Akt1 amino acids 449-480, His6 (SEQ ID NO:28) tagged Akt3 amino acids 448-479 were added to each of the wells. Following three washes with the binding buffer, the plate was treated for an hour with a 1:1000 dilution of anti His6 (SEQ ID NO:28) mouse monoclonal antibody. A 1:10,000 dilution of goat anti mouse antibody-Horse Radish Peroxide conjugate in binding buffer was added to the wells. The plates were washed four times, five minutes each, with 0.05% Tween 20/TBS (25 mM tris chloride, pH=7.5, 150 mM NaCl) and once with TBS (25 mM tris chloride, pH=7.5, 150 mM NaCl). Color was developed by adding TMB substrate (KPL) to each well. The reaction was quenched with 0.5 M H2SO4. The A450 measured on a 96-well plate reader. The Net A450 was obtained by subtracting the absorbance value for the blank control (no immobilized ligand) from each of the triplicate values obtained for the ligand-epitope interaction. The selectivity assay with full length His6 (SEQ ID NO:28) tagged Akt1, Akt2 and Akt3 was performed following the same protocol, using 25 nM protein instead of 2.5 μM His6 tagged peptide epitope.

[4] = target: T2, Akt2 epitope (450-481) (Homo sapiens, UniProt P31751); experiment: Epitope selectivity ELISA with His6 tagged C-terminal 32-mer fragments; assay type: binding; details: peptide fragments; set also full protein level
T2 construct: made in house; host or cells: chemical solid-phase peptide synthesis (Rink Amide MBHA resin)
T2 sequence (P31751 450-481 limits assumed): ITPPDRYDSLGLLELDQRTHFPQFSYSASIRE
Description: as §1, with “Color was developed by adding TMB substrate (KPL) to each well. The reaction was quenched with 0.5 M H2SO4.” left out, “The selectivity assay with full length His6 (SEQ ID NO:28) tagged Akt1, Akt2 and Akt3 was performed following the same protocol, using 25 nM protein instead of 2.5 μM His6 tagged peptide epitope.” left out

[5] = target: T3, Akt (Homo sapiens, UniProt P31751); experiment: OVCAR3 lysate pull-down (immunoprecipitation) assay; assay type: binding; details: eluents stained with pan-Akt antibody
T3 construct: endogenous in cells; host or cells: OVCAR3
Description: OVCAR3 cells (ATCC) were grown in RPMI-1640 media containing 20% fetal bovine serum. Passage three cells were grown to ˜80% confluence. Cells were lysed with lysis buffer (10 mM Tris-Cl (pH=7.5), 100 mM NaCl, 1% (v/v) Triton X-100, 0.1% SDS (w/v), 0.5% deoxycholate, 1 mM DTT, 1 mM EDTA, 1× PhosStop phosphatase inhibitors (Roche), 1× Complete protease inhibitors (Roche)) and the amount of protein measured using BCA Protein Assay Kit (Pierce Biotechnologies, Inc). Streptavidin-agarose resin solution (EMD) was swelled in TBST (25 mM tris chloride, pH=7.5, 150 mM NaCl, 0.05% Tween-20). Each of the biotinylated ligands was immobilized on the Streptavidin-agarose resin by adding 7.2 μL of 1 mM ligand stock (DMSO) to 10 μL of the swelled streptavidin-agarose resin. For the blank control, the resin was treated with 7.2 μL of 1 mM biotinylated acyl glycine. […] After shaking overnight at 4° C., 50 μM D-biotin was added to the resin to block any remaining sites. The resin was washed with TBST five times, for fifteen minutes each. The resin was then swelled in binding buffer for two hours. To each of the immobilized ligands, 200 μL OVCAR3 cell lysate (1.9 mg/ml) was added. The tubes were shaken at 4° C. for 18 hours. The beads were extensively washed, three times for fifteen minutes in binding buffer, three times (fifteen minutes) in TBST, and three times (fifteen minutes) in TBS to remove unbound proteins. The resin bound proteins were eluted by adding 40 μL of 2×SDS-PAGE sample loading buffer (BioRad) and heating at 95° C. for five minutes. A 1:10 diluted sample of lysate in sample loading buffer was prepared by mixing 1 μL of the sample with 9 μL sample loading buffer and denaturing the sample by heating at 95° C. for five minutes. 10 μL of each sample was loaded on a 12% SDS-PAGE gels (BioRad) and run for 80 minutes at 110 volts. Three identical gels were loaded and run at the same time. One gel was used for Coomassie staining with Coomassie Fluor Orange Protein Gel Stain (Molecular Probes) following the manufacturer's protocol. The two other gels were transferred to nitrocellulose membranes by the semidry transfer method, blocked for two hours at 4° C. with 5% non-fat milk, and treated overnight at 4° C. with a 1:1000 dilution of pan-Akt rabbit monoclonal antibody (Cell Signaling Technology) and a 1:1000 dilution of pS473 Akt rabbit monoclonal antibody (Cell Signaling Technology), respectively, in 0.5% non-fat milk. The membranes were washed and treated for an hour with a 1:10,000 dilution of monoclonal mouse anti-rabbit-HRP secondary antibody (Cell Signaling Technology) in 0.5% milk. After five washes of five minutes each with TBST and one wash of five minutes with TBS, the blots were developed with West Dura ECL substrate (Thermo Scientific) and imaged on film.

[6] = target: T4, target peptide epitope (Akt2 450-481, pS474) (Homo sapiens, UniProt P31751); experiment: ELISA of C terminal triligand candidates binding to the target peptide epitope; details: listed as C-t1
T4 construct: made in house; host or cells: chemical solid-phase peptide synthesis (Rink Amide MBHA resin)
T4 sequence (P31751 450-481 limits assumed): T2 sequence (P31751 450-481 limits assumed)
Description: Selection of the final C terminal triligand C-tL: Four triligand candidates were synthesized with (L-Az4)-hdGGf (SEQ ID NO:25) […], (L-Az4)-hdGsf (SEQ ID NO:74) (C-t2), (L-Az4)-hdGww (SEQ ID NO:67) (C-t3), (L-Az4)-hdGkf (SEQ ID NO:77) (C-t4) as the 3° peptide arm. Binding of the candidates to the target peptide epitope was determined in an ELISA assay (FIG. 20C) and the ligand C-t1 emerged as the best binder. C-t1 was chosen as the C terminal triligand C-tL.
1.25 μM biotinylated ligand was prepared by diluting the 1 mM stock in binding buffer (25 mM tris chloride, pH=7.4, 150 mM NaCl, 0.1% BSA, 0.05% Tween 20). The prepared ligand solution or 0.125% DMSO in buffer (buffer control) was immobilized on a High Capacity Streptavidin 96 well plate (Thermo Scientific). After washing away the excess ligand, the plate was blocked overnight with 1% BSA/25 mM tris chloride, pH=7.4/150 mM NaCl, 0.05% Tween 20. 2.5 μM solutions of the His6 (SEQ ID NO:28) tagged target phosphopeptide epitope Akt2 amino acids 450-481, His6 (SEQ ID NO:28) tagged Akt1 amino acids 449-480, His6 (SEQ ID NO:28) tagged Akt3 amino acids 448-479 were added to each of the wells. […] The A450 measured on a 96-well plate reader. The Net A450 was obtained by subtracting the absorbance value for the blank control (no immobilized ligand) from each of the triplicate values obtained for the ligand-epitope interaction. […]

T1 sequence (P31751 whole entry, the tested form may be a part): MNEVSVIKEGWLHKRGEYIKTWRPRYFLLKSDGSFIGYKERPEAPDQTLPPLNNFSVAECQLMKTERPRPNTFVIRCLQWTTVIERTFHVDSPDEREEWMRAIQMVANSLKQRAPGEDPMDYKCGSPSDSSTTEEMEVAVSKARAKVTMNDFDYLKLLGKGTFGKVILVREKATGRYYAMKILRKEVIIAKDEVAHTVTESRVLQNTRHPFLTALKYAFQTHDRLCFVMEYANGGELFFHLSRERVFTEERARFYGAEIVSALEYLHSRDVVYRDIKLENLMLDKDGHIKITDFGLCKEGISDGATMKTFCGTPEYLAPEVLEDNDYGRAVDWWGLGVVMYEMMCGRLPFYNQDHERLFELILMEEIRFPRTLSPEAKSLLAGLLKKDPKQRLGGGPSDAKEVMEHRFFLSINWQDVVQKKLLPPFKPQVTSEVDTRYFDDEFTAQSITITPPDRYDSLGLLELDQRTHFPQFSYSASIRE
T3 sequence (P31751 whole entry): as the sequence (P31751 whole entry, the tested form may be a part) above

Row | Compound | effect on Akt phosphorylation [1] | EC50 ([2]; densitometry of pGSK3α/β western blot, normalized to DMSO control, read-out: EC50 of inhibition of Akt2 kinase activity) | influence on Akt2 kinase activity (p-GSK-3α/β level) ([2]; relative to DMSO control) | EC50 [3] [µM] | selectivity for the Akt2 epitope compared to corresponding regions in Akt1 and Akt3 [4] | immunoprecipitation of Akt from OVCAR3 cell lysate [5] | binding to the target peptide epitope [6]
1 | Cc1n[nH]c2ccc(-c3cncc(OC[C@@H](N)Cc4c[nH]c5ccccc45)c3)cc12 [A-443654] | paradoxical hyper-phosphorylation of Akt at both Thr308 and Ser473 | – | – | – | – | – | –
2 | CC(=O)NC(CCCCn1cc(C[C@@H](NC(=O)CCCCn2cc(C[C@@H](NC(=O)[C@@H](Cc3ccccc3)NC(=O)[C@@H](Cc3ccc(O)cc3)NC(=O)CNC(=O)[C@@H](CC(N)=O)NC(=O)[C@H](N)Cc3c[nH]cn3)C(=O)O)nn2)C(=O)N[C@H](Cc2c[nH]c3ccccc23)C(=O)N[C@H](CCCCN)C(=O)N[C@@H](C(=O)N[C@H](CCCCN)C(=O)N[C@H](CCCCNC(=O)CCc2cn(CCCC[C@H](NC(C)=O)C(=O)N[C@H](Cc3c[nH]cn3)C(=O)N[C@H](CC(=O)O)C(=O)NCC(=O)NCC(=O)N[C@H](Cc3ccccc3)C(N)=O)nn2)C(=O)N2CCCCC2)C(C)C)nn1)C(=O)NCCOCCOCCOCCC(=O)NCCNC(=O)CCCC[C@@H]1SC[C@@H]2NC(=O)N[C@@H]21 (stereo partly shown) [C-tL] | – | 4 µM and ~4 µM | inhibits Akt2 kinase activity | 0.125 | significant selectivity for the Akt2 epitope | lower signal than N-tL | best binder; also recorded: shows good binding

Source: US11371994B2, “Phosphorylated Akt-specific capture agents, compositions, and methods of using and making” (California Institute of Technology, priority 2013, dated 2022)
